These results are taken from patent publication US20090137549A1, “Novel compounds useful for the treatment of degenerative & inflamatory diseases” (priority 2006, published 2009).

Where a name gives a salt, the structure may show the parent alone.

One test deals with T1, PDE1A (Homo sapiens, UniProt P54750). Nature of the test: PDE1A primary screening, cAMP dynamic HTRF kit from Cisbio. Type of test: biochemical. The note with it: 10 μM, control compounds of the primary screening, 100 nM cAMP. The text has this:
For the primary screening an assay using the cAMP dynamic HTRF® kit from Cisbio (catnr 62AM2PEB) is used. Its principle is based on HTRF® technology (Homogeneous Time-Resolved Fluorescence). The method is a competitive immunoassay between native cAMP and the cAMP labeled with XL665. The tracer binding is visualized by a monoclonal antibody against cAMP, labeled with Cryptate. The specific signal (i.e. energy transfer) is inversely proportional to the concentration of cAMP in the sample (see FIG. 1).
For the enzymatic reaction, a mixture is made of 20 μL with purified PDE1A enzyme, 100 nM cAMP and the compound (10 μM in a final concentration of 1% DMSO) in a black 384-plate. The reaction buffer is Tris 20 mM pH 7.4, 4 μg/mLl calmodulin, 3 mM MgCl2, 1.5 mM CaCl2, 0.2 mg/mL BSA and 0.001% Brij-35®. After an incubation of 30 minutes at room temperature, the reaction is stopped by the addition of 10 μL labelled cAMP-XL665 and 10 μL anti-cAMP-Cryptate. After 1 hour incubation at room temperature, the readout is performed on the Envision (excitation 360 nm; emission donor 615 nm; emission acceptor 665 nm).
PDE1A hydrolyses cAMP into 5′AMP; this low cAMP concentration will result in a high signal. A PDE1A inhibitor will result in a decrease of the signal. […]
(In general: In TR-FRET formats the signal depends on donor and acceptor labels being close together.)
Turning to `CCCCOc1cc(CC2CNC(=O)N2)ccc1OC` (stereo not shown) [Ro-20-1724], the inhibition – broadly, the share of the control response that was lost under treatment – is recorded as 0%.

Staying with this test, now noted: control compounds of the primary screening, 100 nM cAMP.
As for `CCCOc1ccccc1-c1nc2nn[nH]c2c(=O)[nH]1` [Zaprinast], the inhibition at 10 µM was approximately 50%.

Another test addresses T1, PDE1A. The experiment in a line: PDE1A dose response, Cyclic Nucleotide Phosphodiesterase Assay Kit from Biomol (colorimetric). Type of test: biochemical. The note with it: purified PDE1A enzyme, 100 μM cAMP. The gist of the method: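 Purified PDE1A hydrolysed 100 μM cAMP with 5′-nucleotidase in Tris 20 mM pH 7.4 with calmodulin, Ca2+, Mg2+, 45 min at 37° C. Released phosphate read by malachite-green absorbance at 615 nm. Duplicate 8-point 1/3 dilutions from 20 μM, 1% DMSO; 10 μM vardenafil defined 100% inhibition.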
As for `CC(C)(C)n1ncc2c(=O)[nH]c(C3CN(CC(=O)c4ccccc4)C3)nc21` [Example 174, 1-tert-Butyl-6-(1-(2-oxo-2-phenylethyl)azetidin-3-yl)-1H-pyrazolo[3,4-d]pyrimidin-4(5H)-one], the IC50 (commonly the concentration needed to halve the response being measured) lay within 101 to 500 nM. Same read-out and setting: the value for `CC(C)(C)n1ncc2c(=O)[nH]c(C3CN(Cc4nc5ccccc5[nH]4)C3)nc21` [Example 175, 6-(1-((1H-Benzo[d]imidazol-2-yl)methyl)azetidin-3-yl)-1-tert-butyl-1H-pyrazolo[3,4-d]pyrimidin-4(5H)-one] was 1000 to 1500 nM; that for `O=c1[nH]c(C2CCCN(Cc3ccccc3)C2)nc2c1cnn2C1CCCCC1` (stereo not shown) [Example 176, 6-(1-Benzylpiperidin-3-yl)-1-cyclohexyl-1H-pyrazolo[3,4-d]pyrimidin-4(5H)-one] was 1000 to 1500 nM. With `N#C/N=C(/Nc1ccc(F)cc1)N1CC(c2nc3c(cnn3C3CCCCC3)c(=O)[nH]2)C1` [Example 177, N′-Cyano-3-(1-cyclohexyl-4-oxo-4,5-dihydro-1H-pyrazolo[3,4-d]pyrimidin-6-yl)-N-(4-fluorophenyl)azetidine-1-carboximidamide], the IC50 fell in the range of 1 to 100 nM. On the same count and under the same terms, the value for `N#C/N=C(/NCC1CCCCC1)N1CC(c2nc3c(cnn3C3CCCCC3)c(=O)[nH]2)C1` [Example 178, N′-Cyano-3-(1-cyclohexyl-4-oxo-4,5-dihydro-1H-pyrazolo[3,4-d]pyrimidin-6-yl)-N-(cyclohexylmethyl)azetidine-1-carboximidamide] was 1 to 100 nM. Same read-out and setting: to `CC(C)(C)n1ncc2c(=O)[nH]c(C3CN(/C(=N\C#N)Nc4ccc(F)cc4)C3)nc21` [Example 179, 3-(1-tert-Butyl-4-oxo-4,5-dihydro-1H-pyrazolo[3,4-d]pyrimidin-6-yl)-N′-cyano-N-(4-fluorophenyl)azetidine-1-carboximidamide] belongs 1 to 100 nM; to `O=c1[nH]c(C2CN(/C(=C\[N+](=O)[O-])NCC3CCCCC3)C2)nc2c1cnn2C1CCCCC1` [Example 180, 1-Cyclohexyl-6-(1-(1-(cyclohexylmethylamino)-2-nitrovinyl)azetidin-3-yl)-1H=pyrazolo[3,4-d]pyrimidin-4(5H)-one], 101 to 500 nM. The same measure, in the same setting: to `Cc1nn(C2CCCCC2)c2nc(C3CCCN(C(=O)c4ccccc4NS(C)(=O)=O)C3)[nH]c(=O)c12` (stereo not shown) [Example 181, N-{2-[3-(1-Cyclohexyl-3-methyl-4-oxo-4,5-dihydro-1H-pyrazolo[3,4-d]pyrimidin-6-yl)-piperidine-1-carbonyl]phenyl}-methanesulfonamide] belongs 501 to 1000 nM; to `O=C(NC1CCCNC1)N1CC(c2nc3c(cnn3C3CCCCC3)c(=O)[nH]2)C1` (stereo not shown) [Example 182, 3-(1-Cyclohexyl-4-oxo-4,5-dihydro-1H-pyrazolo[3,4-d]pyrimidin-6-yl)-azetidine-1-carboxylic acid piperidin-3-ylamide trifluoroacetate], 501 to 1000 nM. `CC(C)N1CCCC(NC(=O)N2CC(c3nc4c(cnn4C4CCCCC4)c(=O)[nH]3)C2)C1` (stereo not shown) [Example 183, 3-(1-Cyclohexyl-4-oxo-4,5-dihydro-1H-pyrazolo[3,4-d]pyrimidin-6-yl)-azetidine-1-carboxylic acid (1-isopropyl-piperidin-3-yl)-amide] had an IC50 of 101 to 500 nM. `CC(C)N1CCC(CNC(=O)N2CC(c3nc4c(cnn4C4CCCCC4)c(=O)[nH]3)C2)CC1` [Example 184, 3-(1-Cyclohexyl-4-oxo-4,5-dihydro-1H-pyrazolo[3,4-d]pyrimidin-6-yl)-N-((1-isopropylpiperidin-4-yl)methyl)azetidine-1-carboxamide]: the 50% inhibitory concentration (IC50) lay within 501 to 1000 nM.
